Like-named read-outs stand apart in the source and are kept apart here.
Columns and labels:
[1] = molecular target: T1, AchE (from Electrophorus electricus) (Electrophorus electricus, UniProt O42275); assay: biochemical
T1 construct: purchased Sigma-Aldrich (Milan, Italy)
Procedure: The acetylcholinesterase (AchE) inhibitory activity was evaluated using a method described by Balkrishna et al. with slight modification (for details, see the Supporting Materials). […]
[…] IC50 values were calculated through a linear regression and expressed as means ± SD (standard deviation). They were considered statistically significant with values of p < 0.05.
Acetylcholinesterase inhibition assay
The assay mechanism forecasts that the AchE enzyme hydrolyses the substrate acetylthiocholine, resulting in the product “thiocholine” which reacts with Ellman’s reagent (5,5’-dithio-bis-(2-nitrobenzoic acid), DTNB) to produce 2-nitrobenzoate-5-mercaptothiocholine and 5-thio-2-nitrobenzoate (TNB); the latter can be detected at 415 nm. 150 µL of phosphate buffer (0.1 M), 20 microliters of the sample (final concentrations of 100, 200, […]
300 µM) and 20 µL of 0.2 U/mL AchE (from Electrophorus electricus) were treated in 96-well plates and […]

mushroom tyrosinase [2] = assay: Tyrosinase inhibition assay (spectrophotometric, L-tyrosine, dopachrome at 495 nm); format: biochemical, Agaricus bisporus; conditions: mushroom tyrosinase 100 U/mL, 1 mM L-tyrosine, 37 °C; mean of three experiments; read-out: Tyrosinase inhibitory activity IC50±SD
Procedure: The tyrosinase inhibitory activity was evaluated using a method previously described with slight modification (for details, see the Supporting Materials). […]
Tyrosinase inhibition assay
30 microliters of the sample (final concentrations of 50, 100, 200 µM) and 50 µL of 100 U/mL mushroom tyrosinase were treated in 96-well plates and incubated at 37 ◦C for 15 min. Subsequently, 50 µL of 1 mM L-tyrosine was added and then reacted at 37 ◦C for 15 min. The amount of dopachrome formed was measured at 495 nm using Thermo Scientific™ Multiskan SkyHig h Microplate Spectrophotometer. Each sample has been tested in triplicate and the tyrosinase inhibitory activity was calculated using the following equation:
Tyrosinase inhibitory activity (I%) = [1 − (S − S0)/ (C − C0)] × 100 where S is the absorbance of the sample, tyrosinase, and L-tyrosine; S0 is the absorbance of the sample and L-tyrosine; C is the absorbance of tyrosinase and L-tyrosine, and C0 is the absorbance of L-tyrosine (negative […]
control). […] IC50 values were calculated through a linear regression and expressed as means ± SD (standard deviation). They were considered statistically significant with values of p < 0.05. […]

mushroom tyrosinase [3] = assay: Tyrosinase inhibition kinetics study (Lineweaver-Burk plot); format: biochemical, Agaricus bisporus
Procedure: Kinetic analysis of the tyrosinase enzyme for compound 13 was carried out using the Lineweaver–Burk double reciprocal plot. […] At 37 °C, the enzyme inhibition reaction was recorded by measuring the absorbance of the microplate reader at 495 nm for 0, 3, 6, 9, 12, and 15 min.

[4] = 0.2 U/mL AchE, acetylthiocholine, 37 °C, mean of three experiments, read-out: AchE inhibitory activity IC50±SD

T1 sequence (O42275 24-633): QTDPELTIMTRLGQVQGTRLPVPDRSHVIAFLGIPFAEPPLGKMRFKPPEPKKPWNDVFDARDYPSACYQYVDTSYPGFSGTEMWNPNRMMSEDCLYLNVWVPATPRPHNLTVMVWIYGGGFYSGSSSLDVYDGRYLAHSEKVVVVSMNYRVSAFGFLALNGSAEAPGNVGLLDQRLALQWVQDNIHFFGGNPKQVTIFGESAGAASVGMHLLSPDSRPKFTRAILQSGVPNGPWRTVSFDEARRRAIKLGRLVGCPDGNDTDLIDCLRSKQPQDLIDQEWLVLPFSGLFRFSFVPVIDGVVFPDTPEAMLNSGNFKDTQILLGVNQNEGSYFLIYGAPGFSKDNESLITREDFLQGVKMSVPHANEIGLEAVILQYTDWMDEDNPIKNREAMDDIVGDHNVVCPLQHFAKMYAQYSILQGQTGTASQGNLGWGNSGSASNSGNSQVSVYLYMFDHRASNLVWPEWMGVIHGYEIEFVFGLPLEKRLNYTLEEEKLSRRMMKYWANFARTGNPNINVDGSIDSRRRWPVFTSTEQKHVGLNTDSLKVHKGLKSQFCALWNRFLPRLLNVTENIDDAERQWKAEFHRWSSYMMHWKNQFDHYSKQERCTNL

Compound | IC50 [1, 4] | IC50 (mushroom tyrosinase [2]) | other results
COc1cc2ccc(=O)oc2cc1O[C@@H]1O[C@H](CO)[C@@H](O)[C@H](O)[C@H]1O [Compound 1, Scopolin] | 231 µM | 46.8 ± 6.34 µM | 
O=C(O)C[C@@H]1CCC(=O)[C@@H]1C/C=C\CCO[C@@H]1O[C@H](CO)[C@@H](O)[C@H](O)[C@H]1O [Compound 2, Tuberonic acid glucoside] | 343 ± 10 µM | 192 ± 7.92 µM | 
OC[C@H]1O[C@@H](OCCc2ccccc2)[C@H](O)[C@@H](O)[C@@H]1O [Compound 3, Phenylethyl ꞵ-D-glucopyranoside] | 281 ± 10.1 µM | 196 ± 7.01 µM | 
CCC(C)O[C@@H]1O[C@H](CO)[C@@H](O)[C@H](O)[C@H]1O (stereo partly drawn) [Compound 4, 1-Methylpropyl ꞵ-D-glucopyranoside] | 352 ± 9.03 µM | 412 ± 8.12 µM | 
C[C@@H]1O[C@@H](OC[C@H]2O[C@@H](Oc3cc(O)c4c(=O)cc(-c5ccc(O)cc5)oc4c3)[C@H](O)[C@@H](O)[C@@H]2O)[C@H](O)[C@H](O)[C@H]1O [Compound 6, Apigenin 7-O-rutinoside] | 182 µM | 32.1 µM | 
COc1ccc(-c2oc3cc(O[C@@H]4O[C@H](CO)[C@@H](O)[C@H](O)[C@H]4O)c(OC)c(O)c3c(=O)c2O)cc1 [Compound 7, Camaraside] | 232 ± 9.98 µM | 87.4 ± 5.67 µM | 
C=C1C(=O)O[C@@H]2/C=C(/C)[C@@H](O)C[C@@H](O)C(=C)C[C@H](OC(=O)/C(C)=C/C)[C@@H]12 [Compound 8, 8-Tigloylhydroxyisonobilin] | 225 µM | 184 ± 7.12 µM | 
O=c1cc(-c2ccc(O)cc2)oc2cc(O)cc(O)c12 [Compound 9, Apigenin] |  |  | IC50 [1]: 362 ± 10.1 µM
C=C1C(=O)O[C@@H]2/C=C(/C)[C@@H](O)C[C@@H](O)C(=C)C[C@H](OC(=O)/C(C)=C\C)[C@@H]12 [Compound 10, Hydroxyisonobilin] | 268 ± 12.1 µM | 188 ± 6.63 µM | 
C=C1C(=O)O[C@@H]2/C=C(/C)[C@H](O)C[C@@H](O)C(=C)C[C@H](OC(=O)/C(C)=C\C)[C@@H]12 [Compound 11, 3-Epi-hydroxyisonobilin] | 263 ± 11.2 µM | 286 ± 8.28 µM | 
C=C1C[C@H](OC(=O)/C(C)=C\C)[C@H]2C(=C)C(=O)O[C@@H]2/C=C(/C)[C@@H](O)CC1=O [Compound 12, Nobilinon A] | 244 ± 9.11 µM | 314 ± 8.09 µM | 
C=C1CC(OC(=O)C(C)=CC)C2C(C=C(C)C(O)CC1O)OC(=O)C2C (stereo not shown) [Compound 13, 11,13-Dihydro-8-tigloylhydroxyisonobilin] | 245 ± 9.16 µM | 146 µM | Type of tyrosinase inhibition (mushroom tyrosinase [3]; Lineweaver-Burk double reciprocal plot): uncompetitive; Vmax in the presence of the inhibitor (mushroom tyrosinase [3]; inhibitor 53.52 µg/mL, L-tyrosine 1-0.125 mM, control Vmax 42.02 µM/min): 27.25 µM/min
C=C1C(=O)O[C@@H]2/C=C(/C)[C@@H](O)C/C=C(\C)C[C@H](OC(=O)/C(C)=C\C)[C@@H]12 [Compound 14, Nobilin] |  | 297 ± 7.23 µM | IC50 ([1]; read-out: AchE inhibitory activity IC50±SD): 304 µM
COc1ccc(-c2cc(=O)c3c(O)c(OC)c(O)cc3o2)cc1 [Compound 15, 5,7-Dihydroxy-6-methoxy-2-(4-methoxyphenyl)-4H-1-benzopyran-4-one] | 190 µM | 212 ± 6.76 µM | 
ꞵ-D-Glucopyranose, 1-[(2 Z)-2 methyl-2-butenoate] [Compound 5] | 388 ± 11.1 µM | 299 ± 7.86 µM | 
